This passage reports Concentration results from ChEMBL document CHEMBL1135451, “Electrochemical and peroxidase oxidation study of N'-hydroxyguanidine derivatives as NO donors” (Bioorg Med Chem Lett, 2002).

This test in a line: NO-releasing ability under the oxidation by horseradish peroxidase (HRP) in the presence of H2O2 for 20min, expressed as nitrite concentration. The test is classed as functional.
`COc1ccc(NC(=N)NO)cc1`: the Concentration amounted to 24 µM. Next, `Cc1ccc(NC(=N)NO)cc1`: 6 µM; `Cc1ccc(C/N=C(/N)NO)cc1`: 113 µM. Regarding `N=C(NO)Nc1ccccc1`, the Concentration turned out to be 28 µM. For `N=C(NO)NCc1ccccc1` the value was 33 µM; for `N/C(=N/Cc1ccc(Cl)cc1)NO`, 151 µM; for `N=C(N)NCCC[C@H](N)C(=O)O`, 0 µM.

Consider `COc1ccc(C/N=C(/N)NO)cc1`, for which the Concentration was determined as 49 µM. Next, `N/C(=N/Cc1ccc([N+](=O)[O-])cc1)NO`: 65 µM. Next, `N/C(=N/CCCC(N)C(=O)O)NO` (configuration not stated): 12 µM; `N=C(NO)Nc1ccc(Cl)cc1`: 63 µM; `N/C(=N/c1ccc(Br)cc1)NO`: 54 µM.
